Measured values: patent publication US20170136021A1, “METHODS AND COMPOSITIONS FOR TREATING ENVELOPED VIRUSES” (priority 2014, published 2017)

Assays:
Ebola virus [1] = format: cell-based
Ebola virus [2] = experiment: microbe, parasite or virus in culture; format: cell-based; conditions: for EC50: Zaire ebolavirus, Vero, read-out: EC50 of Ebola infection
rVSV-EBOV-GP = experiment: organism not typed; format: cell-based, vesicular stomatitis virus expressing EBOV glycoprotein
Ebola virus [3] = tested on: Ebola virus; set-up: species or system mice; conditions: mouse, in vivo

Row | SMILES | Ebola replication in cells (Ebola virus [1]) | percentage of Ebola positive cells versus concentration (inhibition of Ebola) (Ebola virus [1]) | overall infection with Ebola virus (Ebola virus [2]) | EC50 (Ebola virus [2]) | Ebola entry (rVSV-EBOV-GP) | mortality of Ebola infected mice (Ebola virus [3]) | percentage survival (Ebola virus [3]; 30 mg/kg) | IC50 (rVSV-EBOV-GP; Vero, 20 h, read-out: IC50 of viral entry inhibition)
1 | C#Cc1cccc(Nc2ncnc3cc(OCCOC)c(OCCOC)cc23)c1 [erlotinib] | reduces | inhibition of Ebola by erlotinib in a dose-dependent manner | dose-dependent reduction | 4.22 µM | reduced Ebola entry in a dose-dependent manner | reduces | 100% | 
2 | CCN(CC)CCNC(=O)c1c(C)[nH]c(/C=C2\C(=O)Nc3ccc(F)cc32)c1C [sunitinib] |  |  |  | 2.25 µM |  |  |  | 6.15 µM
